Laboratory results from US8952150B2, “Prostaglandin transporter inhibitors and uses thereof” (Albert Einstein College of Medicine of Yeshiva University, priority 2009, dated 2015).

Target: rat PGT (Rattus norvegicus (Rat), UniProt Q00910)
Test: [3H]PGE2 uptake inhibition in MDCK cells stably transfected with rat PGT (percent inhibition and IC50)
Format: cell-based
Conditions: for Inh (% of Ctl) 2.5 μM: 2.5 μM compound; for Inh (% of Ctl) 2.5 μM / Inh (% of Ctl) 5 μM / Inh (% of Ctl) 0.1 μM / Inh (% of Ctl) 0.5 μM / Inh (% of Ctl) 1 μM / Inh (% of Ctl) 10 μM: inhibition of [3H]PGE2 uptake; for Inh (% of Ctl) 5 μM: 5 μM compound; for Inh (% of Ctl) 0.1 μM: 0.1 μM compound; for Inh (% of Ctl) 0.5 μM: 0.5 μM compound; for Inh (% of Ctl) 1 μM: 1 μM compound; for Inh (% of Ctl) 10 μM: 10 μM compound; for IC50: [3H]PGE2 uptake, MDCK cells stably transfected with rat PGT
Method: MDCK cells stably transfected with rat PGT (Endo et al., 2002) were seeded at 15-20% confluence on 24-well plates. The day on which the cells were seeded was considered day 1. PGE2 uptake experiments were conducted on day 4. All of the PGE2 uptake experiments were conducted at room temperature. On day 4, cells were washed twice with Waymouth buffer (135 mM NaCl, 13 mM H-Hepes, 13 mM Na-Hepes, 2.5 mM CaCl2, 1.2 mM MgCl2, 0.8 mM MgSO4, 5 mM KCl, and 28 mM D-glucose). Then 200 μL of Waymouth buffer containing [^3H]PGE2 (purchased from Perkin Elmer) was added to each well. At the designed time, the uptake of [^3H]PGE2 was stopped by aspiration of uptake buffer; this was followed by immediate washing twice with 500 μL of chilled Waymouth buffer. Cells were then lysed with 100 μL lysis buffer containing 0.25% SDS and 0.05 N NaOH. 1.5 mL of scintillation solution was added to each well, and intracellular [^3H]PGE2 was counted by MicroBeta Counter.
For preliminary testing of the compounds, 20 μL of Waymouth buffer containing the compound was added to each well; this was immediately followed by the addition of 180 μL of Waymouth buffer containing [^3H]PGE2. In each well, the total volume of uptake medium was 200 μL. Organic compounds were first dissolved in EtOH and then diluted in Waymouth buffer. The percent inhibition of [^3H]PGE2 uptake by compounds was calculated as [(uptakevehicle−uptakeinhibitor)÷(uptakevehicle)]×100.
IC50 was calculated by fitting an equation of y=m1−m1*(m0/(m2+m0)).

Structure (SMILES) | Inh (% of Ctl) 2.5 μM | Inh (% of Ctl) 5 μM | Inh (% of Ctl) 0.1 μM | Inh (% of Ctl) 0.5 μM | Inh (% of Ctl) 1 μM | Inh (% of Ctl) 10 μM | IC50 [µM]
COC(=O)[C@H](NC(=O)c1ccc(Nc2nc(NCCOCCOCCNC(=O)c3ccccc3)nc(Nc3ccc(O)cc3)n2)cc1)c1ccccc1 [compound 73] | 38.9 % of Ctl | 75.3 % of Ctl | – | – | – | – | –
CN(c1ccc(O)cc1)c1nc(NCCOCCOCCNC(=O)c2ccccc2)nc(Nc2ccc(C(=O)NCc3ccccc3)cc2)n1 [compound 123] | – | – | 12.0 % of Ctl | 36.6 % of Ctl | – | – | –
CCCCCCNC(=O)c1ccc(Nc2nc(NCCOCCOCCNC(=O)c3ccccc3)nc(Nc3ccc(O)cc3)n2)cc1 [compound 44] | – | – | – | – | 65.0 % of Ctl | 77.5 % of Ctl | 0.76
CC(=O)NCCOCCNc1nc(Nc2ccc(O)cc2)nc(Nc2ccc(C(=O)NCc3ccccc3)cc2)n1 [compound 140] | – | – | 11.5 % of Ctl | 4.5 % of Ctl | 10.9 % of Ctl | – | –
O=C(NCCOCCOCCNc1nc(Nc2ccc(O)cc2)nc(Nc2ccc(C(=O)NCc3cccc(-c4ccccc4)c3)cc2)n1)c1ccccc1 [compound 90] | 60.6 % of Ctl | 72.7 % of Ctl | – | 23.4 % of Ctl | – | – | –
O=C(NCCOCCOCCNc1nc(Nc2ccc(O)cc2)nc(Nc2ccc(C(=O)NCc3ccc(F)cc3)cc2)n1)c1ccccc1 [compound 99] | 77.1 % of Ctl | 89.4 % of Ctl | 81.3 % of Ctl | 61.8 % of Ctl | – | – | 0.0237
COC(=O)Cc1ccc(Nc2nc(NCCOCCOCCNC(=O)c3ccccc3)nc(Nc3ccc(C(=O)NCc4ccccc4)cc3)n2)cc1 [compound 122] | – | – | 5.8 % of Ctl | 38.1 % of Ctl | – | – | –
O=C(NCc1ccccc1)c1ccc(Nc2nc(NCCOCCNCc3ccccc3)nc(Nc3ccc(O)cc3)n2)cc1 [compound 141] | – | – | 12.7 % of Ctl | 22.0 % of Ctl | 43.5 % of Ctl | – | –
O=C(NCCOCCOCCNc1nc(Nc2ccc(O)cc2)nc(Nc2ccc(C(=O)NCc3cccc(Cl)c3)cc2)n1)c1ccccc1 [compound 87] | 83.5 % of Ctl | 90.6 % of Ctl | 55.1 % of Ctl | 71.8 % of Ctl | – | – | 0.71
CNC(=O)c1ccc(Nc2nc(NCCOCCOCCNC(=O)c3ccccc3)nc(Nc3ccc(O)cc3)n2)cc1 [compound 14] | – | 35.9 % of Ctl | – | 10.6 % of Ctl | – | – | –
COC(=O)c1ccc(CNC(=O)c2ccc(Nc3nc(NCCOCCOCCNC(=O)c4ccccc4)nc(Nc4ccc(O)cc4)n3)cc2)cc1 [compound 114] | – | – | 41.0 % of Ctl | 61.4 % of Ctl | – | – | –
CCCCCCNc1nc(Nc2ccc(O)cc2)nc(Nc2ccc(C(=O)NCc3ccccc3)cc2)n1 [compound 120] | – | – | 11.2 % of Ctl | 29.1 % of Ctl | – | – | –
O=C(NCCOCCOCCNc1nc(Nc2ccccc2)nc(Nc2ccc(O)cc2)n1)c1ccccc1C(F)(F)F [compound 72] | – | 66.1 % of Ctl | – | – | 19.7 % of Ctl | 75.3 % of Ctl | –
O=C(NCCOCCOCCNc1nc(Cl)nc(Nc2ccc(OCc3ccccc3)cc2)n1)c1ccccc1 [compound 3] | – | 1.7 % of Ctl | – | 0.4 % of Ctl | – | – | –
O=C(NCCOCCOCCNc1nc(O)nc(Nc2ccc(O)cc2)n1)c1ccccc1 [compound 12] | – | 4.7 % of Ctl | – | 2.8 % of Ctl | – | – | –
O=C(NCCOCCOCCNc1nc(Nc2ccccc2)nc(Nc2ccc(OCc3ccccc3)cc2)n1)c1ccccc1 [compound 2] | – | 6.5 % of Ctl | – | 1.6 % of Ctl | – | – | –

Structure (SMILES) | Inh (% of Ctl) 2.5 μM | Inh (% of Ctl) 5 μM | Inh (% of Ctl) 0.1 μM | Inh (% of Ctl) 0.5 μM | Inh (% of Ctl) 1 μM | Inh (% of Ctl) 10 μM | IC50 [µM]
O=C(NCCOCCOCCNc1nc(Nc2ccccc2)nc(Nc2ccc(C(=O)NCc3ccccc3)cc2)n1)c1ccccc1 [compound 116] | – | – | 36.4 % of Ctl | 59.4 % of Ctl | – | – | –
O=C(NCc1ccccc1)c1ccc(Nc2nc(NCCOCCNS(=O)(=O)c3ccccc3)nc(Nc3ccc(O)cc3)n2)cc1 [compound 138] | – | – | 17.8 % of Ctl | 22.5 % of Ctl | 34.5 % of Ctl | – | –
COC(=O)CCCCCCNc1nc(Nc2ccccc2)nc(Nc2ccc(O)cc2)n1 [compound 50] | – | – | – | – | 9.3 % of Ctl | 15.1 % of Ctl | –
O=S(=O)(NCCOCCOCCNc1nc(Nc2ccccc2)nc(Nc2ccc(O)cc2)n1)c1ccccc1 [compound 38] | – | – | – | – | 22.8 % of Ctl | 63.0 % of Ctl | –
O=C(O)C(F)(F)F.[N-]=[N+]=NCCOCCOCCNC(=O)c1ccc(Nc2nc(NCCOCCOCCNC(=O)c3ccccc3)nc(Nc3ccc(O)cc3)n2)cc1 [compound 8] | – | – | – | 52.3 % of Ctl | – | – | 0.224
CCCCCCNC(=O)c1ccc(Nc2nc(NCCOCCNC(=O)c3ccccc3)nc(Nc3ccc(O)cc3)n2)cc1 [compound 119] | – | – | 57.2 % of Ctl | 81.4 % of Ctl | – | – | –
O=C(NCCOCCOCCNc1nc(Nc2ccccc2)nc(Nc2ccc3cn[nH]c3c2)n1)c1ccccc1 [compound 53] | – | 83.4 % of Ctl | – | – | 65.2 % of Ctl | 86.4 % of Ctl | 4.04
O=C(NCCOCCNc1nc(Nc2ccc(O)cc2)nc(Nc2ccc(C(=O)NCc3ccc(F)cc3)cc2)n1)c1ccccc1 [compound 147] | – | – | 44.5 % of Ctl | 70.2 % of Ctl | 79.5 % of Ctl | – | 0.0317
O=C(NCCOCCOCCNc1nc(Nc2ccc(O)cc2)nc(Nc2ccc(C(=O)NCc3ccccc3Cl)cc2)n1)c1ccccc1 [compound 106] | 68.8 % of Ctl | 93.1 % of Ctl | 68.4 % of Ctl | 64.8 % of Ctl | – | – | –
O=C(NCCOCCOCCNc1nc(Nc2ccc(O)cc2)nc(Nc2ccc(C(=O)NCc3ccc(F)c(F)c3)cc2)n1)c1ccccc1 [compound 129] | – | – | 8.9 % of Ctl | 45.1 % of Ctl | 65.6 % of Ctl | – | –
COc1ccc(Nc2nc(NCCOCCOCCNC(=O)c3ccccc3)nc(Nc3ccccc3)n2)cc1 [compound 1] | – | 8.5 % of Ctl | – | 9.6 % of Ctl | – | – | –
O=C(NCCOCCOCCNc1nc(Nc2ccc(O)cc2)nc(Nc2ccc(C(=O)NCC3CCCCC3)cc2)n1)c1ccccc1 [compound 115] | – | – | 54.4 % of Ctl | 76.8 % of Ctl | – | – | –
O=C(O)c1ccc(CNc2nc(NCCOCCOCCNC(=O)c3ccccc3)nc(Nc3ccc(C(=O)NCc4ccccc4)cc3)n2)cc1 [compound 121] | – | – | 1.0 % of Ctl | 28.8 % of Ctl | – | – | –
O=C(CCCCCCNc1nc(Nc2ccccc2)nc(Nc2ccc(O)cc2)n1)NCc1ccccc1 [compound 97] | – | 19.4 % of Ctl | – | – | 13.1 % of Ctl | 30.8 % of Ctl | –
O=C(NCc1ccc(F)cc1)c1ccc(Nc2nc(Nc3ccc(O)cc3)nc(Nc3ccc(CNCc4ccccc4)cc3)n2)cc1 [compound 149] | – | – | 3.8 % of Ctl | 9.1 % of Ctl | 17.6 % of Ctl | – | –
